Results taken from patent US20100151050A1, “Method for evaluation of compound using RSK1” (priority 2005, published 2010).

System: p53-negative cells (TOV21G-shp53, A549-shp53, MCF7-shp53, U2OS-shp53, dominant negative U2OS-mtp53)
Experiment: Cell viability by MTT assay after RSK1 siRNA lipofection, p53-negative cells
Type: cell-based
Details: p53-negative cells with siRNA of RSK1, 96 hours
Description: First, as p53-positive cells, prepared were TOV21G, A549, MCF7 and U2OS cells. As p53-negative cells, prepared were TOV21G-shp53, A549-shp53, MCF7-shp53 and U2OS-shp53 by introducing shRNA of p53 into the above-mentioned four types of cells. Further, dominant negative U2OS-mtp53 cells were also prepared by introducing V157Fp53 into U2OS cells.
Next, siRNA of RSK1 was introduced into the above cells according to a lipofection method, and the cells were incubated in a 10% FCS-containing D-MEM medium (10% FCS-containing MacCoy's 5A medium for U2OS cells) in the presence or absence of cisplatin (CDDP) for 96 hours, and then their viability was measured through MTT assay. As the siRNA of RSK1, used was a mixture of the following three sequences.

Compound: N.N.[Cl][Pt][Cl] [cisplatin]
- effect of cisplatin under RSK1 expression inhibition: enhanced
